Where two headings read alike, the source gives them in different places.
Experiments:
[1] = IS-RPLC retention on silica-based C18 column, logkw by linear solvent strength model; type: physicochemical
Procedure: (§1) The retention behavior of the 42 basic compounds (Table 1) were investigated at different ratios of methanol (φ = 0.7–0.1, the interval was 0.1 or 0.05 based on the retention of the investigated solutes). The logk values were plotted versus φ for each solute at pH 7.0, pH 8.0, pH 9.0, and pH 10.0. […] The logD values of the model compounds and verification compounds calculated using Equation (S3) based on the logP and pH values are also listed in Table 1.
The column temperature was set at 30 °C. Methanol and 20 mmol/L ammonium phosphate buffer (pH = 7.0, 8.0, 9.0, 10.0) was used as the mobile phase to perform isocratic elution. The injection volume was 10 µL and the detection wavelength for each eluted compound was set at its optimum absorption wavelength.
(§2) At each pH, the retention time (tR) of every analyte was determined for at least four different volume fractions (φ) of methanol. All the tR values of the solutes were obtained by averaging the results of at least three independent injections. The tR value was corrected using dual-point retention time correction (DP-RTC). For a detailed description of the process, refer to our previous work. For the different hydrophobicities of the studied compounds, benzene, toluene, and benzyl alcohol were used as anchor compounds in the DP-RTC method. The dead time t0 was determined using uracil. For each solute, the logarithm of k was plotted against φ, and logkw was obtained using the Equation (S1). The logD values of the model compounds were calculated using Equation (S3), and the logD–logkw models were established with Equation (S4). The statistical analysis for the regression model was accomplished using Origin 9.4. […]
(§3) Where, k is the capacity factor, φ is the volume fraction of organic modifier in the mobile phase, and S is the constant obtained by linear regression in the equations. […]
The Eqs. (S1) and (S2) are the basis for the determination of logP by revered- phase liquid chromatography (RPLC) method. For dissociative solutes, it has been confirmed by many studies that the logD calibrated from logP has a better linear correlation with logkw than logP. […]

[2] = logD determined by multi-parameter QSRR models from IS-RPLC logkw
Procedure: Multi-parameter QSRR models including logD, logkw, ne, A, and B were established using the multiple linear regression (MLR) method. In the process of linear fitting, ne, A, B, and their different combinations were introduced to optimize the models.
The logD values reported in the literature for these four compounds were calculated using Equation (S3) with corresponding pKa, logP, and pH values.
At each pH, the retention time (tR) of every analyte was determined for at least four different volume fractions (φ) of methanol. All the tR values of the solutes were obtained by averaging the results of at least three independent injections. The tR value was corrected using dual-point retention time correction (DP-RTC). For a detailed description of the process, refer to our previous work. For the different hydrophobicities of the studied compounds, benzene, toluene, and benzyl alcohol were used as anchor compounds in the DP-RTC method. The dead time t0 was determined using uracil. For each solute, the logarithm of k was plotted against φ, and logkw was obtained using the Equation (S1). The logD values of the model compounds were calculated using Equation (S3), and the logD–logkw models were established with Equation (S4). The statistical analysis for the regression model was accomplished using Origin 9.4.

[3] = parameters: method as in UFZ-LSER database; details: hydrogen bonding parameter B; ref UFZ-LSER database; cited from earlier work
[4] = From the text: as §1, §2, §3
and logkw, which is usually called Collander equation [25 ]. lo g lo g wPm k n= + (S2)
Where, m and n are constants obtained by linear regression.
The Eqs. (S1) and (S2) are the basis for the determination of logP by revered- phase liquid chromatography (RPLC) method. For dissociative solutes, it has been confirmed by many studies that the logD calibrated from logP has a better linear correlation with logkw than logP.
For basic compounds, the logD value can be calibrated from Eq. (S3), and the Collander equation can be rewritten into Eq. (S4). log log( )D − −+ −+= + ++P […]
lo g ' lo g 'Dm k n= +w (S4)
Where, pKa1, pKa2 , … p Kan are the dissociation constants of basic compounds of corresponding acids in the mobile phase, pH is the pH value of mobile phase, m′ and n′ are fitting parameters. Han et al. pointed out that although mobile phase pH and pKa of solutes will change along with the varied organic modifier fraction, the difference between a couple of relevant pH and pKa is a constant. Therefore, the used pH and pKa in this paper were both the values obtained at 100% aqueous phase. […]

[5] = pH 7.0, methanol/20 mmol/L ammonium phosphate buffer, Welch Xtimate C18, 30 °C, 100% aqueous extrapolation
[6] = pH 8.0, methanol/20 mmol/L ammonium phosphate buffer, Welch Xtimate C18, 30 °C, 100% aqueous extrapolation
[7] = pH 9.0, methanol/20 mmol/L ammonium phosphate buffer, Welch Xtimate C18, 30 °C, 100% aqueous extrapolation
[8] = pH 10.0, methanol/20 mmol/L ammonium phosphate buffer, Welch Xtimate C18, 30 °C, 100% aqueous extrapolation
[9] = IS-RPLC retention (logkw), pH 7
[10] = IS-RPLC retention (logkw), pH 8
[11] = IS-RPLC retention (logkw), pH 9
[12] = IS-RPLC retention (logkw), pH 10
[13] = pH 7.0, calculated with literature logP, pKa and pH, Equation (S3)
[14] = pH 8.0, calculated with literature logP, pKa and pH, Equation (S3)
[15] = pH 9.0, calculated with literature logP, pKa and pH, Equation (S3)
[16] = pH 10.0, calculated with literature logP, pKa and pH, Equation (S3)

Row | SMILES | logkw-pH 7.0 [1, 5] | logkw-pH 8.0 [1, 6] | logkw-pH 9.0 [1, 7] | logkw-pH 10.0 [1, 8] | chromatographic logD [2, 9] | chromatographic logD [2, 10] | chromatographic logD [2, 11] | chromatographic logD [2, 12] | B [3] | chromatographic logD ([2]; pH 7) | chromatographic logD ([2]; pH 8) | chromatographic logD ([2]; pH 9) | chromatographic logD ([2]; pH 10) | further results
1 | Nc1ccc(I)cc1 [4-Iodoaniline] | 2.22 | 2.28 | 2.29 | 2.28 | 2.14 | 2.1 | 2.13 | 2.08 | 1.53 | – | – | – | – | –
2 | c1ccncc1 [Pyridine] | – | – | – | – | – | – | – | – | – | – | – | – | – | logkw-pH 7.0 ([1]; pH 7): 0.70; logkw-pH 8.0 ([1]; pH 8): 0.92; logkw-pH 9.0 ([1]; pH 9): 1.01; logkw-pH 10.0 ([1]; pH 10): 1.05
3 | Cc1cc([N+](=O)[O-])ccc1N [2-Methyl-4-nitroaniline] | 1.76 | 1.79 | 1.46 | 1.84 | – | – | – | – | 1.22 | 1.67 | 1.63 | 1.31 | 1.6 | –
4 | Nc1c(Cl)cc([N+](=O)[O-])cc1[N+](=O)[O-] [2-Chloro-4,6-dinitroaniline] | 2.19 | 2.25 | 2.26 | 2.30 | – | – | – | – | 1.56 | 2.11 | 2.07 | 1.99 | 1.97 | –
5 | Cc1ccccn1 [2-Picoline] | 1.31 | 1.32 | 1.34 | 1.36 | – | – | – | – | 0.60 | – | – | – | – | logDpH 7.0 ([4]; pH 7): 1.05; logDpH 8.0 ([4]; pH 8): 1.09; logDpH 9.0 ([4]; pH 9): 1.09; logDpH 10.0 ([4]; pH 10): 1.09
6 | CCC(C(N)=O)N1CCCC1=O (stereo not drawn) [Etiracetam] | 0.80 | 0.66 | 0.82 | 0.88 | 0.7 | 0.54 | 0.17 | 0.04 | 1.03 | – | – | – | – | –
7 | Nc1ccccc1 [Aniline] | 0.96 | 0.95 | 0.97 | 1.02 | – | – | – | – | 1.86 | – | – | – | – | logDpH 7.0 ([4]; pH 7): 0.90; logDpH 8.0 ([4]; pH 8): 0.90; logDpH 9.0 [4, 15]: 0.90; logDpH 10.0 ([4]; pH 10): 0.90
8 | Nc1ccc([N+](=O)[O-])cc1[N+](=O)[O-] [2,4-Dinitroaniline] | 1.80 | 1.86 | 1.78 | 1.92 | – | – | – | – | 1.44 | 1.71 | 1.69 | 1.58 | 1.64 | –
9 | c1c[nH]cn1 [Imidazole] | −0.53 | −0.39 | −0.34 | −0.16 | – | – | – | – | 0.71 | – | – | – | – | –
10 | Nc1cccc(S(=O)(=O)c2cccc(N)c2)c1 [3,3’-Sulfonyldianiline] | 1.78 | 1.83 | 1.83 | 1.47 | 1.7 | 1.67 | 1.2 | 0.69 | 1.82 | – | – | – | – | –
11 | Nc1ccccc1N [1,2-diaminobenzene] | – | – | – | – | – | – | – | – | 1.26 | 0.38 | 0.38 | 0.07 | 0.28 | logkw-pH 7.0 ([1]; pH 7): 0.50; logkw-pH 8.0 ([1]; pH 8): 0.49; logkw-pH 9.0 ([1]; pH 9): 0.29; logkw-pH 10.0 ([1]; pH 10): 0.60
12 | Nc1ccc([N+](=O)[O-])cc1Cl [2-Chloro-4-nitroaniline] | – | – | – | – | – | – | – | – | 1.41 | 1.99 | 1.96 | 1.93 | 1.92 | logkw-pH 7.0 ([1]; pH 7): 2.07; logkw-pH 8.0 ([1]; pH 8): 2.13; logkw-pH 9.0 ([1]; pH 9): 2.14; logkw-pH 10.0 ([1]; pH 10): 2.18
13 | Cc1c[nH]cn1 [4-Methylimidazole] | – | – | – | – | -0.54 | 0.06 | 0.08 | 0.07 | 0.64 | – | – | – | – | logkw-pH 7.0 ([1]; pH 7): −0.08; logkw-pH 8.0 ([1]; pH 8): 0.19; logkw-pH 9.0 ([1]; pH 9): 0.32; logkw-pH 10.0 ([1]; pH 10): 0.39

Further lines, with some results ahead:

Row | logkw-pH 7.0 [1, 5] | logkw-pH 8.0 [1, 6] | logkw-pH 9.0 [1, 7] | logkw-pH 10.0 [1, 8] | chromatographic logD [2, 9] | chromatographic logD [2, 10] | chromatographic logD [2, 11] | chromatographic logD [2, 12] | SMILES | B [3] | chromatographic logD ([2]; pH 7) | chromatographic logD ([2]; pH 8) | chromatographic logD ([2]; pH 9) | chromatographic logD ([2]; pH 10) | further results
14 | −0.39 | −0.38 | −0.27 | −0.15 | -0.52 | -0.46 | -0.84 | -0.89 | O=C(n1ccnc1)n1ccnc1 [1,1’-Carbonyldiimidazole] | 1.47 | – | – | – | – | –
15 | 1.36 | 1.36 | 1.38 | 1.43 | 1.28 | 1.22 | 0.94 | 0.86 | COc1nc(C)nc(N)n1 [2-Amino-4-methyl-6-methoxy-s-triazine] | 1.07 | – | – | – | – | –
16 | 0.97 | 1.61 | 2.13 | 2.44 | – | – | – | – | CN(C)Cc1ccccc1 [N, N-Dimethylbenzylamine] | 0.67 | – | – | – | – | logDpH 7.0 [4, 13]: 0.17; logDpH 8.0 [4, 14]: 1.12; logDpH 9.0 [4, 15]: 1.77; logDpH 10.0 [4, 16]: 1.95
17 | 1.13 | 1.12 | 1.14 | 1.18 | – | – | – | – | Nc1ccc(F)cc1 [4-Fluoroaniline] | 1.76 | – | – | – | – | logDpH 7.0 [4, 13]: 1.15; logDpH 8.0 [4, 14]: 1.15; logDpH 9.0 [4, 15]: 1.15; logDpH 10.0 [4, 16]: 1.15
18 | 1.36 | 1.36 | 1.38 | 1.43 | 1.27 | 1.22 | 0.95 | 0.88 | Nc1ncncn1 [2-Amino-1,3,5-triazine] | 1.00 | – | – | – | – | –
19 | 1.18 | 1.18 | 1.20 | 1.30 | 2.29 | 2.05 | 1.2 | 1.87 | O=C(O)c1cc(O)nc(O)c1 [Citrazinic acid] | 1.23 | – | – | – | – | –
20 | 0.17 | 0.07 | −0.16 | 0.21 | – | – | – | – | Nc1cccc(N)c1 [1,3-diaminobenzene] | 1.28 | 0.03 | -0.02 | -0.41 | -0.15 | –

Reference: article PMC10005301, “Prediction of the n-Octanol/Water Partition Coefficients of Basic Compounds Using Multi-Parameter QSRR Models Based on IS-RPLC Retention Behavior in a Wide pH Range” (Molecules, 2023)
